Data: PubChem BioAssay AID298 (DTP/NCI, 2004)
Where “and” joins values, the source holds several entries; their conditions need not be identical. Equal values may be shown once. Results filed as inconclusive are left out.

Tested on: MX-1 breast xenograft, intrarenal, nude mice, tumor weight
Experiment: NCI In Vivo Anticancer Drug Screen. Data for tumor model Human Mammary Carcinoma MX-1 Xenograft (intrarenal inoculation) in NU/NU BALB/C (nude) mice
Conditions: endpoint: mean tumor weight change, higher = larger tumour
In short: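 Compounds were given to mice carrying transplanted tumors, and tumor size or survival was measured. Each value is the treated-group measurement (T) divided by the vehicle-treated control-group measurement (C).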

[1] = dose: 150.0 mg/kg/injection, schedule: Q04DX003 (sc), vehicle: saline
[2] = dose: 300.0 mg/kg/injection, schedule: Q04DX003 (sc), vehicle: saline
[3] = dose: 200.0 mg/kg/injection, schedule: Q04DX003 (sc), vehicle: saline
[4] = dose: 150.0 mg/kg/injection, schedule: Q04DX003 (ip), vehicle: saline with Tween-80
[5] = dose: 300.0 mg/kg/injection, schedule: Q04DX003 (ip), vehicle: saline with Tween-80
[6] = dose: 600.0 mg/kg/injection, schedule: Q04DX003 (sc), vehicle: saline
[7] = dose: 1200.0 mg/kg/injection, schedule: Q04DX003 (sc), vehicle: saline

`C1CC[N-]CC1.C1CC[N-]CC1.C1CC[N-]CC1.[Cl][Rh]([Cl])[Cl]` was tested, and the T/C (dose: 75.0 mg/kg/injection, schedule: Q04DX003 (sc), vehicle: saline) was 90 % of control, the T/C [1] was 90 % of control and the T/C [2] was 75 % of control.
In the case of `CN(Cc1cnc2nc(N)nc(N)c2n1)c1ccc(C(=O)N[C@@H](CCC(=O)O)C(=O)O)cc1`, the T/C (dose: 3.0 mg/kg/injection, schedule: Q04DX003 (sc), vehicle: sodium bicarbonate) is reported as 152 % of control, the T/C (dose: 6.0 mg/kg/injection, schedule: Q04DX003 (sc), vehicle: sodium bicarbonate) is reported as 162 % of control and the T/C (dose: 12.0 mg/kg/injection, schedule: Q04DX003 (sc), vehicle: sodium bicarbonate) is reported as 112 % of control. The T/C (dose: 18.0 mg/kg/injection, schedule: Q04DX003 (ip), vehicle: sodium bicarbonate) was 55 % of control and the T/C (dose: 24.0 mg/kg/injection, schedule: Q04DX003 (sc), vehicle: sodium bicarbonate) was 80 % of control.
For `C[CH2][Sn]([Cl])([CH2]C)[c]1cc[c]([Sn]([Cl])([CH2]C)[CH2]C)cc1`, the T/C (dose: 0.25 mg/kg/injection, schedule: Q04DX003 (ip), vehicle: Klucel (hydroxypropylcellulose) (HPC)) was 103 % of control, the T/C (dose: 0.5 mg/kg/injection, schedule: Q04DX003 (ip), vehicle: Klucel (hydroxypropylcellulose) (HPC)) was 109 % of control and the T/C (dose: 1.0 mg/kg/injection, schedule: Q04DX003 (ip), vehicle: Klucel (hydroxypropylcellulose) (HPC)) was 95 % of control.
In the case of `CNNCc1ccc(C(=O)NC(C)C)cc1`, the T/C (dose: 50.0 mg/kg/injection, schedule: Q01DX010 (sc), vehicle: saline) is reported as 97 % of control, the T/C (dose: 100.0 mg/kg/injection, schedule: Q01DX010 (sc), vehicle: saline) is reported as 70 % of control and the T/C (dose: 200.0 mg/kg/injection, schedule: Q01DX010 (sc), vehicle: saline) is reported as 45 % of control. For the same molecule, the T/C (dose: 400.0 mg/kg/injection, schedule: Q01DX010 (sc), vehicle: saline) was 4 % of control.
For `O=C1CN(c2ccccc2)C(=O)C1C(=O)Nc1ccc(Cl)c(Cl)c1` (stereo not drawn), the T/C (dose: 120.0 mg/kg/injection, schedule: Q04DX003 (ip), vehicle: saline with Tween-80) was 70 % of control and the T/C (dose: 240.0 mg/kg/injection, schedule: Q04DX003 (ip), vehicle: saline with Tween-80) was 32 % of control.
In the case of `CC1(C)COCN1COCCOCN1COCC1(C)C`, the T/C [3] is reported as 77 % of control and the T/C (dose: 400.0 mg/kg/injection, schedule: Q04DX003 (sc), vehicle: saline) is reported as 83 % of control.
For `O=C(CCCCCCC(=O)ON1C(=O)CCC1=O)ON1C(=O)CCC1=O`, the T/C (dose: 300.0 mg/kg/injection, schedule: Q04DX003 (sc), vehicle: saline with Tween-80) was 110 % of control, the T/C (dose: 600.0 mg/kg/injection, schedule: Q04DX003 (sc), vehicle: saline with Tween-80) was 96 % of control and the T/C (dose: 1200.0 mg/kg/injection, schedule: Q04DX003 (sc), vehicle: saline with Tween-80) was 81 % of control. The T/C (dose: 2400.0 mg/kg/injection, schedule: Q04DX003 (sc), vehicle: saline with Tween-80) was 85 % of control.
For `Cc1ccc2c(c1)n([O-])c1cc(Cl)ccc1[n+]2=O`, the T/C [4] was 84 % of control and 86 % of control and the T/C [5] was 56 % of control and 66 % of control.
For `Cc1ccc(C2=CSC3=NCCN23)cc1Cl`, the T/C (dose: 37.5 mg/kg/injection, schedule: Q04DX003 (ip), vehicle: saline) was 85 % of control.
With `CC1(O)C=CC(=O)C=C1` the T/C (dose: 25.0 mg/kg/injection, schedule: Q04DX003 (ip), vehicle: water) was 96 % of control and the T/C (dose: 50.0 mg/kg/injection, schedule: Q04DX003 (ip), vehicle: water) was 64 % of control.
For `NNC(=S)N/N=C/c1ccccn1`, the T/C (dose: 15.0 mg/kg/injection, schedule: Q04DX003 (sc), vehicle: saline with Tween-80) was 116 % of control, the T/C (dose: 30.0 mg/kg/injection, schedule: Q04DX003 (sc), vehicle: saline with Tween-80) was 96 % of control and the T/C (dose: 60.0 mg/kg/injection, schedule: Q04DX003 (sc), vehicle: saline with Tween-80) was 123 % of control.
For `O=C(O)c1ccc(C(=O)O)c(C(=O)O)c1.[NH-]C1CCCCC1[NH-].[Pt+2]`, the T/C (dose: 3.12 mg/kg/injection, schedule: Q01DX010 (sc), vehicle: sodium bicarbonate) was 74 % of control, the T/C (dose: 6.25 mg/kg/injection, schedule: Q01DX010 (sc), vehicle: sodium bicarbonate) was 40 % of control and the T/C (dose: 12.5 mg/kg/injection, schedule: Q01DX010 (sc), vehicle: sodium bicarbonate) was 6 % of control.
With `CNc1nc(N(C)C)nc(N(C)C)n1` the T/C (dose: 30.0 mg/kg/injection, schedule: Q01DX010 (sc), vehicle: water) was 1 % of control, the T/C (dose: 60.0 mg/kg/injection, schedule: Q01DX010 (sc), vehicle: water) was -31 % of control and the T/C (dose: 120.0 mg/kg/injection, schedule: Q01DX010 (sc), vehicle: water) was -94 % of control.
With `[Cl][Sn]([c]1ccccc1)[c]1ccccc1` the T/C [2] was 104 % of control, the T/C [6] was 86 % of control and the T/C [7] was 55 % of control. For the same molecule, the T/C (dose: 2400.0 mg/kg/injection, schedule: Q04DX003 (sc), vehicle: saline) was 66 % of control.
`CC(=O)O[C@H]1C(=O)[C@@]2(C)C(C(OC(=O)c3ccccc3)[C@]3(O)C[C@H](OC(=O)C(O)C(NC(=O)c4ccccc4)c4ccccc4)C(C)=C1C3(C)C)C1(OC(C)=O)COC1C[C@@H]2OC(=O)CN(C)C` (stereo partly drawn) (tested in a mixture with another compound) was tested, and the T/C (dose: 4.13 mg/kg/injection, schedule: Q01DX009 (ip), vehicle: water) was 34 % of control, the T/C (dose: 8.25 mg/kg/injection, schedule: Q01DX009 (ip), vehicle: water) was 23 % of control and the T/C (dose: 16.5 mg/kg/injection, schedule: Q01DX009 (ip), vehicle: water) was -93 % of control. For the same molecule, the T/C (dose: 33.0 mg/kg/injection, schedule: Q01DX009 (ip), vehicle: water) was -100 % of control.
For `CCC(/C=C/C1OC(=O)C=CC1C)=C\C(C)C/C=C/C(C)=C/C(C)C(=O)C(C)C(O)C(C)C/C(C)=C/C(=O)O` (stereo not drawn), the T/C (dose: 1.0 mg/kg/injection, schedule: Q04DX003 (ip), vehicle: saline + alcohol) was 114 % of control, the T/C (dose: 2.0 mg/kg/injection, schedule: Q04DX003 (ip), vehicle: saline + alcohol) was 109 % of control and the T/C (dose: 4.0 mg/kg/injection, schedule: Q04DX003 (ip), vehicle: saline + alcohol) was 71 % of control. The T/C (dose: 75.0 micrograms/kg/injection, schedule: Q04DX003 (ip), vehicle: saline + alcohol) was 119 % of control, the T/C (dose: 150.0 micrograms/kg/injection, schedule: Q04DX003 (ip), vehicle: saline + alcohol) was 114 % of control and the T/C (dose: 300.0 micrograms/kg/injection, schedule: Q04DX003 (ip), vehicle: saline + alcohol) was 107 % of control. For the same molecule, the T/C (dose: 600.0 micrograms/kg/injection, schedule: Q04DX003 (ip), vehicle: saline + alcohol) was 102 % of control.
In the case of `c1ccc(-c2cc3cc4ccccc4cn3c2)cc1`, the T/C [4] is reported as 61 % of control, the T/C [5] is reported as 108 % of control and the T/C (dose: 600.0 mg/kg/injection, schedule: Q04DX003 (ip), vehicle: saline with Tween-80) is reported as 81 % of control. The T/C (dose: 1200.0 mg/kg/injection, schedule: Q04DX003 (ip), vehicle: saline with Tween-80) was 101 % of control.
`COc1cc2c(ccc3c4cc(OC)c(OC)cc4c[n+](C)c23)cc1O` was tested, and the T/C [1] was 83 % of control, the T/C [2] was 74 % of control and the T/C [6] was 79 % of control. The T/C [7] was 68 % of control.
`NC1=NC(=O)N2CC12` (stereo not drawn) was tested, and the T/C (dose: 50.0 mg/kg/injection, schedule: Q04DX003 (sc), vehicle: saline) was 106 % of control, the T/C (dose: 100.0 mg/kg/injection, schedule: Q04DX003 (sc), vehicle: saline) was 116 % of control and the T/C [3] was 86 % of control.
In the case of `N[C@@H](Cc1ccc(N(CCCl)CCCl)cc1)C(=O)O`, the T/C (dose: 1.0 mg/kg/injection, schedule: Q01DX010 (sc), vehicle: saline) is reported as 1 % of control and 3 % of control, the T/C (dose: 1.0 mg/kg/injection, schedule: Q04DX003 (sc), vehicle: saline) is reported as 88 % of control and the T/C (dose: 1.5 mg/kg/injection, schedule: Q04DX003 (sc), vehicle: saline) is reported as 49 % of control. For the same molecule, the T/C (dose: 2.0 mg/kg/injection, schedule: Q01DX010 (sc), vehicle: saline) was -85 % of control and -79 % of control, the T/C (dose: 2.0 mg/kg/injection, schedule: Q04DX003 (ip), vehicle: saline with Tween-80) was -48 % of control and -38 % of control and the T/C (dose: 2.0 mg/kg/injection, schedule: Q04DX003 (sc), vehicle: saline) was 17 % of control. The T/C (dose: 3.0 mg/kg/injection, schedule: Q04DX003 (sc), vehicle: saline) was 3 % of control, the T/C (dose: 4.0 mg/kg/injection, schedule: Q01DX010 (sc), vehicle: saline) was -92 % of control and -70 % of control and the T/C (dose: 4.0 mg/kg/injection, schedule: Q04DX003 (ip), vehicle: saline with Tween-80) was -94 % of control and -93 % of control. The T/C (dose: 4.0 mg/kg/injection, schedule: Q04DX003 (sc), vehicle: saline) was -9 % of control, the T/C (dose: 6.0 mg/kg/injection, schedule: Q04DX003 (sc), vehicle: saline) was -87 % of control and the T/C (dose: 8.0 mg/kg/injection, schedule: Q01DX010 (sc), vehicle: saline) was -87 % of control. For the same molecule, the T/C (dose: 8.0 mg/kg/injection, schedule: Q04DX003 (ip), vehicle: saline with Tween-80) was -100 % of control and -99 % of control, the T/C (dose: 8.0 mg/kg/injection, schedule: Q04DX003 (sc), vehicle: saline) was -89 % of control and the T/C (dose: 12.0 mg/kg/injection, schedule: Q04DX003 (sc), vehicle: saline) was -96 % of control.
